For 17 compounds, IC50 results are on record in patent publication US10556905B2, “Processes for preparing a diazabicyclooctane compound” (priority 2012, dated 2020).

By IC50 is commonly meant the concentration at which inhibition is half-maximal.

Read-outs that look alike come from different tables or passages of the source.

For one test, the target named is T1, AmpC (Pseudomonas aeruginosa, UniProt P24735).
T1 construct: AmpC, TEM-1, KPC-2 or OXA-2 domain excluding signal peptide was amplified with PCR; made in house; host or cells: Escherichia coli BL21 (DE3), pET-28b(+)
T1 sequence (P24735 27-397): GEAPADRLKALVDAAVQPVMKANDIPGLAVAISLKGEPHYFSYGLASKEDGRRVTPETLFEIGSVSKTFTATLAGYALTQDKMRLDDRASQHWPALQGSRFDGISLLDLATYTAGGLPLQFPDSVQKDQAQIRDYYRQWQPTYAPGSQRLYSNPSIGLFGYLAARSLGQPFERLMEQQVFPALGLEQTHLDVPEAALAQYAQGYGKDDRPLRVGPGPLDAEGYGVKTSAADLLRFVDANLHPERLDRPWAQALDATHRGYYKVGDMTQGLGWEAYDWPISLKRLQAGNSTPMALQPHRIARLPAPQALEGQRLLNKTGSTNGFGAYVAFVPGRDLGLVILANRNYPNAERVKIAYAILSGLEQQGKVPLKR
In words: biochemical.

Another test deals with T2, TEM-1 (Escherichia coli, UniProt P62593).
T2 construct: AmpC, TEM-1, KPC-2 or OXA-2 domain excluding signal peptide was amplified with PCR; made in house; host or cells: Escherichia coli BL21 (DE3), pET-28b(+)
T2 sequence (P62593 24-286 limits assumed): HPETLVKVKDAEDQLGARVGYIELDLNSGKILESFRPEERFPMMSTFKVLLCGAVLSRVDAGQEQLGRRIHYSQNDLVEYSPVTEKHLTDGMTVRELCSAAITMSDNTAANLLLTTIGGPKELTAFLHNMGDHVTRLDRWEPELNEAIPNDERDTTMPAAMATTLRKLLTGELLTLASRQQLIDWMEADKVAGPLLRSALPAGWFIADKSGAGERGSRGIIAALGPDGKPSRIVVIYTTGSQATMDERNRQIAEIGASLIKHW
Put plainly: β-Lactamase inhibitory activity (nitrocefin hydrolysis), TEM-1. It counts as biochemical. The note with it: TEM-1 0.1 nM, 100 μM nitrocefin, pre-incubation 30° C. 10 minutes. As for the experimental part: Using Pseudomonas aeruginosa ATCCBAA-47 genome, plasmid pBR322, Klebsiella pneumoniae ATCCBAA-1705, and P. aeruginosa MSC17696 as a template, each DNA for encoding β-lactamase, AmpC, TEM-1, KPC-2 or OXA-2 domain excluding signal peptide was amplified with PCR. Each of the PCR product was incorporated into pET-28b(+)vector (Merck), introduced into Escherichia coli BL21 (DE3) (Merck), and, under induction of 1 mM isopropyl-β-D-(−)-thiogalactopyranoside (Nacalai Tesque), cultured overnight at 20° C. to express AmpC, TEM-1, KPC-2, and OXA-2. After the bacterial cell was collected, AmpC was purified from the cell extract obtained by ultrasonic treatment, using CM Sepharose Fast Flow (GE Healthcare) and HiTrap Heparin HP (GE Healthcare) at 4° C. TEM-1 was purified with HiTrap SPHP (GE Healthcare), HiTrap Q (GE Healthcare) and Mono Q (GE Healthcare), and KPC-2 was purified with HiTrap SPHP. OXA-2 was purified with HiTrap SPHP and HiTrap Heparin HP.
For the measurement of β-lactamase inhibitory activity, 100 μM (final concentration) nitrocefin (Oxoid) was used as a substrate, and 2.5% DMSO, 10 μg/mL bovine serum derived albumin (Sigma-Aldrich) and 50 mM phosphate buffer at pH 7.0 were used as a reaction solution. […] Nitrocefin was added to each well to be mixed therein, followed by incubation at 30° C. for 20 minutes, and Multiscan Ascent (Thermo Fisher Scientific) was used to measure 492 nm wavelength, thereby measuring nitrocefin hydrolytic activity of β-Lactamase, to determine enzyme inhibitory activity. […] As the inhibitory activity strength, less than 0.1 μM, less than 1 μM, less than 3 μM, less than 10 μM, and 10 μM or more were shown with A, B, C, D, and E respectively.

Another test addresses T3, KPC-2 (Klebsiella pneumoniae, UniProt Q9F663).
T3 construct: AmpC, TEM-1, KPC-2 or OXA-2 domain excluding signal peptide was amplified with PCR; made in house; host or cells: Escherichia coli BL21 (DE3), pET-28b(+)
Put plainly: β-Lactamase inhibitory activity (nitrocefin hydrolysis), KPC-2. The note with it: KPC-2 0.5 nM, 100 μM nitrocefin, pre-incubation 30° C. 10 minutes. It counts as biochemical.

For a further test, the target named is T4, OXA-2 (Escherichia coli, UniProt P0A1V9).
T4 construct: AmpC, TEM-1, KPC-2 or OXA-2 domain excluding signal peptide was amplified with PCR; made in house; host or cells: Escherichia coli BL21 (DE3), pET-28b(+)
T4 sequence (P0A1V9 22-275): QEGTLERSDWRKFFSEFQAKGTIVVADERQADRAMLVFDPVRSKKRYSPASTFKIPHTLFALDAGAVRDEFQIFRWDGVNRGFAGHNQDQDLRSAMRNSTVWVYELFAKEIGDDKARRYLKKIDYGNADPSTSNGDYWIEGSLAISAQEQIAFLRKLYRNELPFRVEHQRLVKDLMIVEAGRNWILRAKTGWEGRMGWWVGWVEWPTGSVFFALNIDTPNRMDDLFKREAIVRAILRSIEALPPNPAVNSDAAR
Put plainly: biochemical. Details: species or system P. aeruginosa.

Where [1] appears, read: OXA-2 2 nM, 100 μM nitrocefin, pre-incubation 30° C. 10 minutes, read-out: β-Lactamase inhibitory activity OXA-2 (IC50).

T3 sequence (Q9F663 25-293, looked up): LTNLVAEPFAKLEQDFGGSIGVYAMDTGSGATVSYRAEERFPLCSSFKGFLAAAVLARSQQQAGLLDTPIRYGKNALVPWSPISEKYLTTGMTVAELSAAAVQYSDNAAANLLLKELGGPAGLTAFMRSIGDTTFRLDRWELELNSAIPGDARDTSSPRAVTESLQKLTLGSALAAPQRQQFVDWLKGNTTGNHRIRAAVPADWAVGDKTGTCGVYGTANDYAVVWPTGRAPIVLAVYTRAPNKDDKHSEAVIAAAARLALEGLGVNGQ

Regarding `CN(C)C(=O)CONC(=O)[C@@H]1CC[C@@H]2CN1C(=O)N2OS(=O)(=O)O` [Example 89, Sodium (2S,5R)—N-[2-(dimethylamino)-2-oxoethoxy]-7-oxo-6-(sulfooxy)-1,6-diazabicyclo[3.2.1]octane-2-carboxamide], the IC50 on AmpC is less than 100 nM; against TEM-1 it was less than 100 nM; against KPC-2, less than 100 nM; against OXA-2, 0.1 to 1 µM.

For the compound `O=C(NOCC(=O)N1CCOCC1)[C@@H]1CC[C@@H]2CN1C(=O)N2OS(=O)(=O)O` [Example 91, Sodium (2S,5R)—N-[2-(morpholin-4-yl)-2-oxoethoxy]-7-oxo-6-(sulfooxy)-1,6-diazabicyclo[3.2.1]octane-2-carboxamide], the IC50 at AmpC is less than 100 nM; at TEM-1, less than 100 nM; at KPC-2 it was less than 100 nM; on OXA-2, 0.1 to 1 µM.

As to `O=C(NOC[C@H]1CCCN1)[C@@H]1CC[C@@H]2CN1C(=O)N2OS(=O)(=O)O` [Example 77, (2S,5R)-7-Oxo-N-[(2R)-pyrrolidin-2-ylmethoxy]-6-(sulfooxy)-1,6-diazabicyclo[3.2.1]octane-2-carboxamide], the IC50 was 100 to 1000 nM against AmpC, less than 100 nM at TEM-1, 100 to 1000 nM against KPC-2 and 0.1 to 1 µM on OXA-2 (setting [1]).

With `CC(C)(C)OC(=O)NCCONC(=O)[C@@H]1CC[C@@H]2CN1C(=O)N2OS(=O)(=O)O` [Example 60, Sodium tert-butyl {2-[({[(2S,5R)-7-oxo-6-(sulfooxy)-1,6-diazabicyclo[3.2.1]oct-2-yl]carbonyl}amino)oxy]ethyl}carbamate], the IC50 at AmpC is 100 to 1000 nM; on TEM-1 it was less than 100 nM; on KPC-2 it was 100 to 1000 nM; against OXA-2 it was 0.1 to 1 µM.

Turning to `C[C@H](N)CONC(=O)[C@@H]1CC[C@@H]2CN1C(=O)N2OS(=O)(=O)O` [Example 66, (2S,5R)—N-{[(2S)-2-Aminopropyl]oxy}-7-oxo-6-(sulfooxy)-1,6-diazabicyclo[3.2.1]octane-2-carboxamide], the 50% inhibitory concentration (IC50) is 100 to 1000 nM against AmpC, less than 100 nM at TEM-1, 1000 to 3000 nM on KPC-2 and 1 to 3 µM at OXA-2 (setting [1]).

Turning to `O=C(NN1CCOCC1)[C@@H]1CC[C@@H]2CN1C(=O)N2OS(=O)(=O)O` (racemic) [Example 55, Sodium (2SR,5RS)—N-(morpholin-4-yl)-7-oxo-6-(sulfooxy)-1,6-diazabicyclo[3.2.1]octane-2-carboxamide], the IC50 against AmpC lay in the range of 100 to 1000 nM; against TEM-1, 100 to 1000 nM; at KPC-2, 1000 to 3000 nM; on OXA-2, 3 to 10 µM.

For the compound `NCc1ccc(C(=O)NNC(=O)[C@@H]2CC[C@@H]3CN2C(=O)N3OS(=O)(=O)O)cc1` (racemic) [Example 32, (2SR,5RS)—N′-(4-(Aminomethyl)benzoyl)-7-oxo-6-(sulfooxy)-1,6-diazabicyclo[3.2.1]octane-2-carbohydrazide], the IC50 was less than 100 nM on AmpC, less than 100 nM at TEM-1, 100 to 1000 nM against KPC-2 and 3 to 10 µM at OXA-2 (setting [1]).

For the compound `O=C(NOC[C@@H]1CCCCN1)[C@@H]1CC[C@@H]2CN1C(=O)N2OS(=O)(=O)O` [Example 78, (2S,5R)-7-Oxo-N-[(2S)-piperidine-2-ylmethoxy]-6-(sulfooxy)-1,6-diazabicyclo[3.2.1]octane-2-carboxamide], the IC50 against AmpC is 100 to 1000 nM; against TEM-1, less than 100 nM; against KPC-2 it was 1000 to 3000 nM; at OXA-2 (setting [1]) it was 1 to 3 µM.

For `O=C(NOC1CNC1)[C@@H]1CC[C@@H]2CN1C(=O)N2OS(=O)(=O)O` [Example 79, (2S,5R)—N-(Azetidin-3-yloxy)-7-oxo-6-(sulfooxy)-1,6-diazabicyclo[3.2.1]octane-2-carboxamide], the IC50 was 100 to 1000 nM at AmpC, less than 100 nM against TEM-1, 1000 to 3000 nM against KPC-2 and 1 to 3 µM on OXA-2 (setting [1]).

With `O=C(NNC(=O)N1CCOCC1)[C@@H]1CC[C@@H]2CN1C(=O)N2OS(=O)(=O)O` [Example 50, Sodium (2S,5R)—N′-(morpholin-4-ylcarbonyl)-7-oxo-6-(sulfooxy)-1,6-diazabicyclo[3.2.1]octane-2-carbohydrazide], the IC50 on AmpC is less than 100 nM; against TEM-1, 100 to 1000 nM; against KPC-2, 100 to 1000 nM; against OXA-2, 3 to 10 µM.

As for `O=C(NNC(=O)[C@@H]1CC[C@@H]2CN1C(=O)N2OS(=O)(=O)O)c1ccncc1` [Example 46, Sodium (2S,5R)-7-oxo-N′-(pyridine-4-ylcarbonyl)-6-(sulfooxy)-1,6-diazabicyclo[3.2.1]octane-2-carbohydrazide], the IC50 was less than 100 nM against AmpC, less than 100 nM at TEM-1, 100 to 1000 nM on KPC-2 and 1 to 3 µM against OXA-2.

As for `O=C(NNC(=O)[C@@H]1CC[C@@H]2CN1C(=O)N2OS(=O)(=O)O)C1CCOCC1` [Example 34, Sodium (2S,5R)-7-oxo-6-(sulfooxy)-N′-(tetrahydro-2H-pyran-4-ylcarbonyl)-1,6-diazabicyclo[3.2.1]octane-2-carbohydrazide], the half-maximal inhibitory concentration (IC50) was less than 100 nM at AmpC, less than 100 nM against TEM-1, 100 to 1000 nM on KPC-2 and 3 to 10 µM on OXA-2.

Consider `CN(C)NC(=O)[C@@H]1CC[C@@H]2CN1C(=O)N2OS(=O)(=O)O` (racemic) [Example 20, Sodium (2SR,5RS)—N′,N′-dimethyl-7-oxo-6-(sulfooxy)-1,6-diazabicyclo[3.2.1]octane-2-carbohydrazide], for which the IC50 against AmpC was 100 to 1000 nM; on TEM-1, 100 to 1000 nM; against KPC-2, 1000 to 3000 nM; against OXA-2, 3 to 10 µM.

On to `O=C(NNC(=O)[C@@H]1CC[C@@H]2CN1C(=O)N2OS(=O)(=O)O)[C@@H]1CCCN1` [Example 38, (2S,5R)-7-Oxo-N′-[(2S)-pyrrolidin-2-ylcarbonyl]-6-(sulfooxy)-1,6-diazabicyclo[3.2.1]octane-2-carbohydrazide], for which the IC50 against AmpC was 100 to 1000 nM; against TEM-1, less than 100 nM; against KPC-2 it was 100 to 1000 nM; on OXA-2 (setting [1]), 1 to 3 µM.

Turning to `O=C(NNC(=O)[C@@H]1CC[C@@H]2CN1C(=O)N2OS(=O)(=O)O)Nc1ccccc1` (racemic) [Example 49, Sodium 2-{[(2SR,5RS)-7-oxo-6-(sulfooxy)-1,6-diazabicyclo[3.2.1]oct-2-yl]carbonyl}-N-phenylhydrazinecarboxamide], the IC50 at AmpC is 100 to 1000 nM; against TEM-1 it was less than 100 nM; against KPC-2 it was 100 to 1000 nM; against OXA-2 it was 3 to 10 µM.

Turning to `CC(C)C(=O)NNC(=O)[C@@H]1CC[C@@H]2CN1C(=O)N2OS(=O)(=O)O` [Example 23, Sodium (2S,5R)—N′-(2-methylpropanoyl)-7-oxo-6-(sulfooxy)-1,6-diazabicyclo[3.2.1]octane-2-carbohydrazide], the half-inhibitory concentration (IC50) is 100 to 1000 nM on AmpC, less than 100 nM at TEM-1, 100 to 1000 nM at KPC-2 and 3 to 10 µM on OXA-2.

Take `COCC(=O)NNC(=O)[C@@H]1CC[C@@H]2CN1C(=O)N2OS(=O)(=O)O` [Example 29, Sodium (2S,5R)—N′-(methoxyacetyl)-7-oxo-6-(sulfooxy)-1,6-diazabicyclo[3.2.1]octane-2-carbohydrazide]: the IC50 against AmpC is 100 to 1000 nM; against TEM-1, less than 100 nM; on KPC-2, 100 to 1000 nM; against OXA-2, 3 to 10 µM.
